# Experimental data published in USRE48335E1, “Polymyxin derivatives as antimicrobial compounds” (priority 2014, dated 2020).
# Read-outs that look alike come from different tables or passages of the source. Positions of bridges follow the written chain, without caps; N, C: chain ends. Non-standard residues stand in square brackets, D forms with d. Residues, ends and D or L forms follow the SMILES beside them. *: point of attachment. X41 = O=S(=O)(c1ccc(Cl)cc1Cl)*; Octanoyl = CCCCCCCC(=O)*; Orn = NCCC[C@H](N)C(=O)O; Dab = NCC[C@H](N)C(=O)O; Abu = CC[C@H](N)C(=O)O; Dap = NC[C@H](N)C(=O)O
# Key:
# Enterobacter cloacae = test system: Enterobacter cloacae
# Outline: (§1)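 Lipopeptides, as trifluoroacetate salts, tested for MIC in CAMHB by CLSI broth microdilution, with polymyxin B (sulphate) as comparator.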
# Pseudomonas aeruginosa = test system: Pseudomonas aeruginosa
# Outline: as §1
# Klebsiella pneumoniae = test system: Klebsiella pneumoniae
# Outline: as §1
# Acinetobacter baumannii = test system: Acinetobacter baumannii
# Outline: as §1
compound,measurement,setting,value
CCCCCCCC(=O)N[C@@H](CCN)C(=O)N[C@H](C(=O)N[C@H](CO)C(=O)N[C@H]1CCNC(=O)[C@H]([C@@H](C)O)NC(=O)[C@H](CCN)NC(=O)[C@H](CCN)NC(=O)[C@H](C)NC(=O)[C@@H](CC(C)C)NC(=O)[C@H](CCN)NC1=O)[C@@H](C)O [Compound 2] (Octanoyl-[Dab]T[dS][Dab][Dab][dL]A[Dab][Dab]T; lactam 4-C),"Minimum inhibitory concentration, Ec FADDI-EC001",Enterobacter cloacae,<0.125 mg/L
same,"Minimum inhibitory concentration, Ec FADDI-EC003",Enterobacter cloacae,<0.125 mg/L
same,"Minimum inhibitory concentration, Ec FADDI-EC006",Enterobacter cloacae,0.5 mg/L
same,MIC,Pseudomonas aeruginosa,8 mg/L
same,"Minimum inhibitory concentration, Pa ATCC 27853",Pseudomonas aeruginosa,8 mg/L
same,"Minimum inhibitory concentration, Pa FADDI-PA022",Pseudomonas aeruginosa,8 mg/L
same,"Minimum inhibitory concentration, Pa FADDI-PA025",Pseudomonas aeruginosa,>32 mg/L
same,MIC,Klebsiella pneumoniae,0.5 mg/L
same,MIC,Acinetobacter baumannii,0.5 mg/L
same,"Minimum inhibitory concentration, Ab A ATCC 17978",Acinetobacter baumannii,0.5 mg/L
same,"Minimum inhibitory concentration, Ab ATCC 19606",Acinetobacter baumannii,0.5 mg/L
same,"Minimum inhibitory concentration, Ab FADDI-AB034",Acinetobacter baumannii,0.5 mg/L
CCCCCCCC(=O)N[C@@H](CCN)C(=O)N[C@H](C(=O)N[C@H](CO)C(=O)N[C@H]1CCNC(=O)[C@H]([C@@H](C)O)NC(=O)[C@H](CCN)NC(=O)[C@H](CCN)NC(=O)[C@H]([C@@H](C)O)NC(=O)[C@@H](Cc2ccccc2)NC(=O)[C@H](CCN)NC1=O)[C@@H](C)O [Compound 3] (Octanoyl-[Dab]T[dS][Dab][Dab][dF]T[Dab][Dab]T; lactam 4-C),"Minimum inhibitory concentration, Ec FADDI-EC001",Enterobacter cloacae,0.5 mg/L
same,"Minimum inhibitory concentration, Ec FADDI-EC003",Enterobacter cloacae,<0.125 mg/L
same,"Minimum inhibitory concentration, Ec FADDI-EC006",Enterobacter cloacae,0.25 mg/L
same,MIC,Pseudomonas aeruginosa,4 mg/L
same,"Minimum inhibitory concentration, Pa ATCC 27853",Pseudomonas aeruginosa,4 mg/L
same,"Minimum inhibitory concentration, Pa FADDI-PA022",Pseudomonas aeruginosa,4 mg/L
same,"Minimum inhibitory concentration, Pa FADDI-PA025",Pseudomonas aeruginosa,>32 mg/L
same,MIC,Klebsiella pneumoniae,<0.125 mg/L
same,MIC,Acinetobacter baumannii,0.25 mg/L
same,"Minimum inhibitory concentration, Ab A ATCC 17978",Acinetobacter baumannii,<0.125 mg/L
same,"Minimum inhibitory concentration, Ab ATCC 19606",Acinetobacter baumannii,0.25 mg/L
same,"Minimum inhibitory concentration, Ab FADDI-AB034",Acinetobacter baumannii,<0.125 mg/L
CC[C@@H]1NC(=O)[C@@H](CC(C)C)NC(=O)[C@H](CCN)NC(=O)[C@@H](NC(=O)[C@H](CN)NC(=O)[C@@H](NC(=O)[C@H](CCN)NS(=O)(=O)c2ccc(Cl)cc2Cl)[C@@H](C)O)CCNC(=O)[C@H]([C@@H](C)O)NC(=O)[C@H](CCN)NC(=O)[C@H](CCN)NC1=O [Compound 148] (X41-[Dab]T[Dap][Dab][Dab][dL][Abu][Dab][Dab]T; lactam 4-C),"Minimum inhibitory concentration (MIC), Ec FADDI-EC001","Enterobacter cloacae; Enterobacter cloacae FADDI-EC001, broth microdilution in CAMHB, TFA salt",2 mg/L
same,"Minimum inhibitory concentration (MIC), Ec FADDI-EC003","Enterobacter cloacae; Enterobacter cloacae FADDI-EC003, broth microdilution in CAMHB, TFA salt",4 mg/L
same,"Minimum inhibitory concentration (MIC), Ec FADDI-EC006","Enterobacter cloacae; Enterobacter cloacae FADDI-EC006, broth microdilution in CAMHB, TFA salt",1 mg/L
same,"Minimum inhibitory concentration (MIC), Pa ATCC 27853","Pseudomonas aeruginosa; Pseudomonas aeruginosa ATCC 27853, broth microdilution in CAMHB, TFA salt",1 mg/L
same,"Minimum inhibitory concentration (MIC), Pa FADDI-PA022","Pseudomonas aeruginosa; Pseudomonas aeruginosa FADDI-PA022, broth microdilution in CAMHB, TFA salt",1 mg/L
same,"Minimum inhibitory concentration (MIC), Pa FADDI-PA025","Pseudomonas aeruginosa; Pseudomonas aeruginosa FADDI-PA025, broth microdilution in CAMHB, TFA salt",16 mg/L
same,"Minimum inhibitory concentration (MIC), Ab ATCC 17978","Acinetobacter baumannii; Acinetobacter baumannii ATCC 17978, broth microdilution in CAMHB, TFA salt",0.5 mg/L
same,"Minimum inhibitory concentration (MIC), Ab ATCC 19606","Acinetobacter baumannii; Acinetobacter baumannii ATCC 19606, broth microdilution in CAMHB, TFA salt",2 mg/L
same,"Minimum inhibitory concentration (MIC), Ab FADDI-AB034","Acinetobacter baumannii; Acinetobacter baumannii FADDI-AB034, broth microdilution in CAMHB, TFA salt",1 mg/L
CCCCCCCC(=O)N[C@@H](CCN)C(=O)N[C@H](C(=O)N[C@@H](CCN)C(=O)N[C@H]1CCCNC(=O)[C@H]([C@@H](C)O)NC(=O)[C@H](CCN)NC(=O)[C@H](CCN)NC(=O)[C@H]([C@@H](C)O)NC(=O)[C@@H](CC(C)C)NC(=O)[C@H](CCN)NC1=O)[C@@H](C)O [Compound 149] (Octanoyl-[Dab]T[Dab][Orn][Dab][dL]T[Dab][Dab]T; lactam 4-C),"Minimum inhibitory concentration (MIC), Ec FADDI-EC001",Enterobacter cloacae,>32 mg/L
same,"Minimum inhibitory concentration (MIC), Ec FADDI-EC003",Enterobacter cloacae,>32 mg/L
same,"Minimum inhibitory concentration (MIC), Ec FADDI-EC006",Enterobacter cloacae,>32 mg/L
same,"Minimum inhibitory concentration (MIC), Pa ATCC 27853",Pseudomonas aeruginosa,>32 mg/L
same,"Minimum inhibitory concentration (MIC), Pa FADDI-PA022",Pseudomonas aeruginosa,>32 mg/L
same,"Minimum inhibitory concentration (MIC), Pa FADDI-PA025",Pseudomonas aeruginosa,>32 mg/L
same,"Minimum inhibitory concentration (MIC), Ab ATCC 17978",Acinetobacter baumannii,>32 mg/L
same,"Minimum inhibitory concentration (MIC), Ab ATCC 19606",Acinetobacter baumannii,>32 mg/L
same,"Minimum inhibitory concentration (MIC), Ab FADDI-AB034",Acinetobacter baumannii,>32 mg/L
colistin [reference compound],"Minimum inhibitory concentration, Ec FADDI-EC001","Enterobacter cloacae; Enterobacter cloacae FADDI-EC001, broth microdilution in CAMHB",0.25 mg/L
same,"Minimum inhibitory concentration, Ec FADDI-EC003","Enterobacter cloacae; Enterobacter cloacae FADDI-EC003, broth microdilution in CAMHB",<0.125 mg/L
same,"Minimum inhibitory concentration, Ec FADDI-EC006","Enterobacter cloacae; Enterobacter cloacae FADDI-EC006, broth microdilution in CAMHB",<0.125 mg/L
same,"Minimum inhibitory concentration, Pa ATCC 27853","Pseudomonas aeruginosa; Pseudomonas aeruginosa ATCC 27853, broth microdilution in CAMHB",1 mg/L
same,"Minimum inhibitory concentration, Pa FADDI-PA022","Pseudomonas aeruginosa; Pseudomonas aeruginosa FADDI-PA022, broth microdilution in CAMHB",1 mg/L
same,"Minimum inhibitory concentration, Pa FADDI-PA025","Pseudomonas aeruginosa; Pseudomonas aeruginosa FADDI-PA025, broth microdilution in CAMHB",2 mg/L
same,"Minimum inhibitory concentration, Ab A ATCC 17978","Acinetobacter baumannii; Acinetobacter baumannii ATCC 17978, broth microdilution in CAMHB",0.5 mg/L
same,"Minimum inhibitory concentration, Ab ATCC 19606","Acinetobacter baumannii; Acinetobacter baumannii ATCC 19606, broth microdilution in CAMHB",1 mg/L
same,"Minimum inhibitory concentration, Ab FADDI-AB034","Acinetobacter baumannii; Acinetobacter baumannii FADDI-AB034, broth microdilution in CAMHB",0.5 mg/L
